Data as given in the NIST ThermoML archive (doi:10.1021/je034162x).

Details: 101.33 kPa, Liquid, Hot wire method

C=CCCCCCC [oct-1-ene]
Details	thermal conductivity [W/m/K]	thermal diffusivity [m2/s]
259.69 K	0.1354	–
259.9 K	0.1353	–
260.06 K	0.1353	–
260.46 K	–	9.04e-08
261.02 K	–	9.07e-08
261.42 K	–	9.09e-08
279.34 K	0.1294	–
279.57 K	0.1294	–
279.72 K	0.129	–
280.08 K	–	8.39e-08
280.66 K	–	8.48e-08
281.06 K	–	8.49e-08
296.88 K	0.124	–
297.14 K	0.124	–
297.28 K	0.124	–
297.65 K	–	7.98e-08
298.28 K	–	8e-08
298.61 K	–	8.02e-08
315.82 K	0.1185	–
316.07 K	0.1186	–
316.24 K	0.1186	–
316.57 K	–	7.49e-08
317.19 K	–	7.58e-08
317.61 K	–	7.61e-08
326.44 K	0.1155	–
326.7 K	0.1156	–
326.87 K	0.1156	–
327.18 K	–	7.24e-08
327.82 K	–	7.35e-08
328.26 K	–	7.38e-08

CCCc1ccccc1 [propylbenzene]
Details	thermal conductivity [W/m/K]	thermal diffusivity [m2/s]
261.18 K	0.1358	–
261.4 K	0.1357	–
261.57 K	0.1356	–
262.04 K	–	9.04e-08
262.63 K	–	9.06e-08
263.06 K	–	9.06e-08
275.09 K	0.133	–
275.33 K	0.1328	–
275.5 K	0.1328	–
275.98 K	–	8.84e-08
276.61 K	–	8.87e-08
277.03 K	–	8.85e-08
294.17 K	0.1286	–
294.42 K	0.1285	–
294.6 K	0.1285	–
295.08 K	–	8.49e-08
295.74 K	–	8.53e-08
296.19 K	–	8.52e-08
312.54 K	0.1247	–
312.79 K	0.1246	–
312.97 K	0.1245	–
313.45 K	–	8.14e-08
314.1 K	–	8.16e-08
314.56 K	–	8.15e-08
329.54 K	0.1208	–
329.79 K	0.1207	–
329.98 K	0.1207	–
330.45 K	–	7.8e-08
331.09 K	–	7.79e-08
331.57 K	–	7.81e-08

[2H]c1c([2H])c([2H])c(C([2H])([2H])[2H])c([2H])c1[2H] [toluene-d8]
Details	thermal conductivity [W/m/K]	thermal diffusivity [m2/s]
259.69 K	0.1349	–
259.91 K	0.1348	–
260.06 K	0.1348	–
260.47 K	–	8.33e-08
261.03 K	–	8.36e-08
261.42 K	–	8.36e-08
279.35 K	0.1298	–
279.57 K	0.1297	–
279.73 K	0.1296	–
280.14 K	–	7.9e-08
280.69 K	–	7.9e-08
281.08 K	–	7.88e-08
296.9 K	0.1251	–
297.13 K	0.1249	–
297.28 K	0.1249	–
297.69 K	–	7.52e-08
298.25 K	–	7.51e-08
298.64 K	–	7.51e-08
315.84 K	0.12	–
316.08 K	0.1199	–
316.24 K	0.1198	–
316.65 K	–	7.15e-08
317.21 K	–	7.13e-08
317.61 K	–	7.11e-08
326.47 K	0.1173	–
326.7 K	0.1172	–
326.87 K	0.117	–
327.28 K	–	6.95e-08
327.85 K	–	6.93e-08
328.25 K	–	6.9e-08
